Measured values reported in patent publication US8906852B2 (MethylGene Inc., priority 2010, dated 2014).

The compounds below were run against T1, VEGFR/KDR (Homo sapiens, UniProt P35968) (assay: VEGFR/KDR kinase inhibition, DELFIA assay). Conditions: ATP 0.6 uM (2x Km), enzyme 5 nM.
T1 construct: made in house; host or cells: Sf9 cells (Spodoptera frugiperda), baculovirus
Type: biochemical
How it was run: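 Enzyme (5 nM) pre-incubated 4 min on ice with inhibitor and Mg-ATP (0.6 uM, 2× Km), then reacted 10-30 min at 30° C on immobilized poly(Glu4,Tyr). EDTA-quenched phosphotyrosine detected with Europium-labeled antibody by time-resolved fluorescence; IC50 from concentration series.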

T1 sequence (P35968 806-1356): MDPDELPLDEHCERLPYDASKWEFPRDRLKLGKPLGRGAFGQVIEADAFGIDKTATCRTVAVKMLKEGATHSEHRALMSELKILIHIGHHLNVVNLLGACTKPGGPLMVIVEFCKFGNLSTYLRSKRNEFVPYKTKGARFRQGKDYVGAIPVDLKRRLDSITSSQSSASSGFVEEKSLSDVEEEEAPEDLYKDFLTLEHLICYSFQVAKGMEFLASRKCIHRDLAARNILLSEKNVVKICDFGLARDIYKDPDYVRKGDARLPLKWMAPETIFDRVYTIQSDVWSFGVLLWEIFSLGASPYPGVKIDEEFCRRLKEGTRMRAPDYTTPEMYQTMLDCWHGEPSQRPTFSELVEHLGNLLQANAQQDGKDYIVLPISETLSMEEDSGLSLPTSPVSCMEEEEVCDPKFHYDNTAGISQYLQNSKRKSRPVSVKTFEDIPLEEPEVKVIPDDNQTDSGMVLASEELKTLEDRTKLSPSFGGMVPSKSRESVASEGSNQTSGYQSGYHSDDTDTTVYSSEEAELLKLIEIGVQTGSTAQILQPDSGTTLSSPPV

| SMILES | IC50 |
| --- | --- |
| CN(CCO)C(=O)C1CCCN(Cc2ccc(-c3cc4nccc(Oc5ccc(NC(=O)NC6CC6)cc5F)c4s3)nc2)C1 (centres unmarked) [Compound 494, 1-((6-(7-(4-(3-cyclopropylureido)-2-fluorophenoxy)thieno[3,2-b]pyridin-2-yl)pyridin-3-yl)methyl)-N-(2-hydroxyethyl)-N-methylpiperidine-3-carboxamide] | < 50 nM |
| N[C@H]1CCN(Cc2ccc(-c3cc4nccc(Oc5ccc(NC(=O)NC6CC6)cc5F)c4s3)nc2)C1 [Compound 495, (S)-1-(4-(2-(5-((3-aminopyrrolidin-1-yl)methyl)pyridin-2-yl)thieno[3,2-b]-pyridin-7-yloxy)-3-fluorophenyl)-3-cyclopropylurea] | < 50 nM |
| CC1(C)CN(Cc2ccc(-c3cc4nccc(Oc5ccc(NC(=O)NC6CC6)cc5F)c4s3)nc2)CCN1 [Compound 496, 1-cyclopropyl-3-(4-(2-(5-((3,3-dimethylpiperazin-1-yl)methyl)pyridin-2-yl)thieno[3,2-b]pyridin-7-yloxy)-3-fluorophenyl)urea] | < 50 nM |
| O=C(CO)N[C@H]1CCN(Cc2ccc(-c3cc4nccc(Oc5ccc(NC(=O)NC6CC6)cc5F)c4s3)nc2)C1 [Compound 497, (S)-N-(1-((6-(7-(4-(3-cyclopropylureido)-2-fluorophenoxy)thieno[3,2-b]pyridin-2-yl)-pyridin-3-yl)methyl)pyrrolidin-3-yl)-2-hydroxyacetamide] | < 50 nM |
| CC1(C)CN(Cc2ccc(-c3cc4nccc(Oc5ccc(NC(=O)NC6CC6)cc5F)c4s3)nc2)CCN1C(=O)CO [Compound 498, 1-cyclopropyl-3-(3-fluoro-4-(2-(5-((4-(2-hydroxyacetyl)-3,3-dimethylpiperazin-1-yl)methyl)pyridin-2-yl)thieno[3,2-b]pyridin-7-yloxy)phenyl)urea] | < 50 nM |
| C=CC(=O)N1CCN(Cc2ccc(-c3cc4nccc(Oc5ccc(NC(=O)NC6CC6)cc5F)c4s3)nc2)CC1(C)C [Compound 499, 1-(4-(2-(5-((4-acryloyl-3,3-dimethylpiperazin-1-yl)methyl)pyridin-2-yl)thieno[3,2-b]pyridin-7-yloxy)-3-fluorophenyl)-3-cyclopropylurea] | < 50 nM |
| CC1(C)CN(Cc2ccc(-c3cc4nccc(Oc5ccc(NC(=O)NC6CC6)cc5F)c4s3)nc2)CCN1CCO [Compound 500, 1-cyclopropyl-3-(3-fluoro-4-(2-(5-((4-(2-hydroxyethyl)-3,3-dimethylpiperazin-1-yl)methyl)pyridin-2-yl)thieno[3,2-b]pyridin-7-yloxy)phenyl)urea] | < 50 nM |
| COCCNCc1ccc(-c2cc3nccc(Oc4ccc(NC(=S)NC5CC5)cc4F)c3s2)nc1 [Compound 502, 1-Cyclopropyl-3-(3-fluoro-4-(2-(5-((2-methoxyethylamino)methyl)pyridin-2-yl)thieno[3,2-b]pyridin-7-yloxy)phenyl)thiourea] | < 50 nM |
| CCNC(=O)N(CCOC)Cc1ccc(-c2cc3nccc(Oc4ccc(NC(=S)NC5CC5)cc4F)c3s2)nc1 [Compound 503, 1-((6-(7-(4-(3-cyclopropylthioureido)-2-fluorophenoxy)thieno[3,2-b]pyridin-2-yl)pyridin-3-yl)methyl)-3-ethyl-1-(2-methoxyethyl)urea] | 50 to 100 nM |
| COCCN(Cc1ccc(-c2cc3nccc(Oc4ccc(NC(=S)NC5CC5)cc4F)c3s2)nc1)C(C)=O [Compound 504, N-((6-(7-(4-(3-cyclopropylthioureido)-2-fluorophenoxy)thieno[3,2-b]pyridin-2-yl)pyridin-3-yl)methyl)-N-(2-methoxyethyl)acetamide] | < 50 nM |
| COCCN(Cc1ccc(-c2cc3nccc(Oc4ccc(NC(=S)NC5CC5)cc4F)c3s2)nc1)C(=O)CO [Compound 505, N-((6-(7-(4-(3-cyclopropylthioureido)-2-fluorophenoxy)thieno[3,2-b]pyridin-2-yl)pyridin-3-yl)methyl)-2-hydroxy-N-(2-methoxyethyl)acetamide] | 50 to 100 nM |
| COC(=O)CC(=O)N1CCN(Cc2ccc(-c3cc4nccc(Oc5ccc(NC(=O)NC6CC6)cc5F)c4s3)nc2)CC1 [Compound 506, methyl 3-(4-((6-(7-(4-(3-cyclopropylureido)-2-fluorophenoxy)thieno[3,2-b]pyridin-2-yl)pyridin-3-yl)methyl)piperazin-1-yl)-3-oxopropanoate] | < 50 nM |
| COC(=O)CCN1CCN(Cc2ccc(-c3cc4nccc(Oc5ccc(NC(=O)NC6CC6)cc5F)c4s3)nc2)CC1 [Compound 507, methyl 3-(4-((6-(7-(4-(3-cyclopropylureido)-2-fluorophenoxy)thieno[3,2-b]pyridin-2-yl)pyridin-3-yl)methyl)piperazin-1-yl)propanoate] | < 50 nM |
| COC(=O)CC(C)N1CCN(Cc2ccc(-c3cc4nccc(Oc5ccc(NC(=O)NC6CC6)cc5F)c4s3)nc2)CC1 (centres unmarked) [Compound 508, methyl 3-(4-((6-(7-(4-(3-cyclopropylureido)-2-fluorophenoxy)thieno[3,2-b]pyridin-2-yl)pyridin-3-yl)methyl)piperazin-1-yl)butanoate] | < 50 nM |
| CCOC(=O)CC(N1CCN(Cc2ccc(-c3cc4nccc(Oc5ccc(NC(=O)NC6CC6)cc5F)c4s3)nc2)CC1)C(F)(F)F (centres unmarked) [Compound 509, ethyl 3-(4-((6-(7-(4-(3-cyclopropylureido)-2-fluorophenoxy)thieno[3,2-b]pyridin-2-yl)pyridin-3-yl)methyl)piperazin-1-yl)-4,4,4-trifluorobutanoate] | < 50 nM |
| O=C(O)CC(=O)N1CCN(Cc2ccc(-c3cc4nccc(Oc5ccc(NC(=O)NC6CC6)cc5F)c4s3)nc2)CC1 [Compound 510, 3-(4-((6-(7-(4-(3-cyclopropylureido)-2-fluorophenoxy)thieno[3,2-b]pyridin-2-yl)pyridin-3-yl)methyl)piperazin-1-yl)-3-oxopropanoic acid] | < 50 nM |
| O=C(O)CC(N1CCN(Cc2ccc(-c3cc4nccc(Oc5ccc(NC(=O)NC6CC6)cc5F)c4s3)nc2)CC1)C(F)(F)F (centres unmarked) [Compound 511, 3-(4-((6-(7-(4-(3-cyclopropylureido)-2-fluorophenoxy)thieno[3,2-b]pyridin-2-yl)pyridin-yl)methyl)piperazin-1-yl)-4,4,4-trifluorobutanoic acid] | < 50 nM |
| O=C(Nc1ccc(Oc2ccnc3cc(-c4ccc(CN5CCN(CCc6nnn[nH]6)CC5)cn4)sc23)c(F)c1)NC1CC1 [Compound 512, 1-(4-(2-(5-((4-(2-(1H-tetrazol-5-yl)ethyl)piperazin-1-yl)methyl)pyridin-2-yl)thieno[3,2-b]pyridin-7-yloxy)-3-fluorophenyl)-3-cyclopropylurea] | < 50 nM |
| CCOC(=O)CC(C)N1CCN(Cc2ccc(-c3cc4nccc(Oc5ccc(NC(=O)NC6CC6)cc5F)c4s3)nc2)CC1 (centres unmarked) [Compound 515, Ethyl 3-(4-((6-(7-(4-(3-cyclopropylureido)-2-fluorophenoxy)thieno[3,2-b]pyridin-2-yl)pyridin-3-yl)methyl)piperazin-1-yl)butanoate] | < 50 nM |
| CC(CC(=O)O)N1CCN(Cc2ccc(-c3cc4nccc(Oc5ccc(NC(=O)NC6CC6)cc5F)c4s3)nc2)CC1 (centres unmarked) [Compound 516] | < 50 nM |
| O=C(O)CCCCN1CCN(Cc2ccc(-c3cc4nccc(Oc5ccc(NC(=O)NC6CC6)cc5F)c4s3)nc2)CC1 [Compound 518, 5-(4-((6-(7-(4-(3-cyclopropylureido)-2-fluorophenoxy)thieno[3,2-b]pyridin-2-yl)pyridin-3-yl)methyl)piperazin-1-yl)pentanoic acid] | < 50 nM |
| O=C(O)CCCN1CCN(Cc2ccc(-c3cc4nccc(Oc5ccc(NC(=O)NC6CC6)cc5F)c4s3)nc2)CC1 [Compound 519, 4-(4-((6-(7-(4-(3-cyclopropylureido)-2-fluorophenoxy)thieno[3,2-b]pyridin-2-yl)pyridin-3-yl)methyl)piperazin-1-yl)butanoic acid] | < 50 nM |
| O=C(O)CCCCCN1CCN(Cc2ccc(-c3cc4nccc(Oc5ccc(NC(=O)NC6CC6)cc5F)c4s3)nc2)CC1 [Compound 520, 6-(4-((6-(7-(4-(3-cyclopropylureido)-2-fluorophenoxy)thieno[3,2-b]pyridin-2-yl)pyridin-3-yl)methyl)piperazin-1-yl)hexanoic acid] | < 50 nM |
| O=C(O)CCCCCCN1CCN(Cc2ccc(-c3cc4nccc(Oc5ccc(NC(=O)NC6CC6)cc5F)c4s3)nc2)CC1 [Compound 521, 7-(4-((6-(7-(4-(3-cyclopropylureido)-2-fluorophenoxy)thieno[3,2-b]pyridin-2-yl)pyridin-3-yl)methyl)piperazin-1-yl)heptanoic acid] | < 50 nM |
| O=C(O)CCCCCCCN1CCN(Cc2ccc(-c3cc4nccc(Oc5ccc(NC(=O)NC6CC6)cc5F)c4s3)nc2)CC1 [Compound 522, 8-(4-((6-(7-(4-(3-cyclopropylureido)-2-fluorophenoxy)thieno[3,2-b]pyridin-2-yl)pyridin-3-yl)methyl)piperazin-1-yl)octanoic acid] | < 50 nM |
| O=C(Nc1ccc(Oc2ccnc3cc(-c4ccc(CN5CCC6(CC5)CCN(C(=O)CO)C6)cn4)sc23)c(F)c1)NC1CC1 [Compound 524, 1-cyclopropyl-3-(3-fluoro-4-(2-(5-((2-(2-hydroxyacetyl)-2,8-diazaspiro[4.5]decan-8-yl)methyl)pyridin-2-yl)thieno[3,2-b]pyridin-7-yloxy)phenyl)urea] | < 50 nM |
| O=C(Nc1ccc(Oc2ccnc3cc(-c4ccc(CN5CCCN(C(=O)CO)CC5)cn4)sc23)c(F)c1)NC1CC1 [Compound 526, 1-cyclopropyl-3-(3-fluoro-4-(2-(5-((4-(2-hydroxyacetyl)-1,4-diazepan-1-yl)methyl)pyridin-2-yl)thieno[3,2-b]-pyridin-7-yloxy)phenyl)urea] | < 50 nM |
| C[C@H]1CN(Cc2ccc(-c3cc4nccc(Oc5ccc(NC(=O)NC6CC6)cc5F)c4s3)nc2)CCN1 [Compound 527] | < 50 nM |
| CC(=O)OCC(=O)N1CCN(Cc2ccc(-c3cc4nccc(Oc5ccc(NC(=O)NC6CC6)cc5F)c4s3)nc2)C[C@@H]1C [Compound 528, (S)-2-(4-((6-(7-(4-(3-cyclopropylureido)-2-fluorophenoxy)thieno[3,2-b]pyridin-2-yl)pyridin-3-yl)methyl)-2-methylpiperazin-1-yl)-2-oxoethyl acetate] | < 50 nM |
